Data as given in US7973072B2, “Substituted benzo-condensed cyclohexanone derivatives and the use thereof for medicament production” (Gruenenthal GmbH, priority 2005, dated 2011).

What was measured:
[1] = target: T1, vanilloid receptor 1 (VR1/TRPV1) of the rat (Rattus norvegicus, UniProt O35433); assay: FLIPR Ca2+ functional study on rat vanilloid receptor 1 (rat dorsal root ganglia cells or CHO K1 cells transfected with rat VR1); assay type: cell-based; conditions: for IC50 / EC50: FLIPR; for IC50: antagonistic action; for VR1 (rat) (% stimulation compared to 10 μM CP) / VR1 (rat) (% inhibition compared to 10 μM CP) / activation at 10 µM / inhibition at 10 µM: test compound 10 μM; for VR1 (rat) (% stimulation compared to 10 μM CP) / activation at 10 µM: % activation based on Ca2+ signal after 10 μM capsaicin (CP); for VR1 (rat) (% inhibition compared to 10 μM CP) / inhibition at 10 µM: suppression of Ca2+ current after 100 nM capsaicin, relative to maximum inhibition with 10 μM capsaicin (CP); for activation at 10 µM / inhibition at 10 µM: CHO-K1; for activation at 10 µM: read-out: VR1 (rat) (% stimulation compared to 10 μM CP); for inhibition at 10 µM: read-out: VR1 (rat) (% inhibition compared to 10 μM CP); for EC50: agonistic action
T1 construct: host or cells: rat dorsal root ganglia primary cells (Ia) or CHO K1 cells stably transfected with the rat VR1 gene (Ib)
T1 sequence (O35433 whole entry): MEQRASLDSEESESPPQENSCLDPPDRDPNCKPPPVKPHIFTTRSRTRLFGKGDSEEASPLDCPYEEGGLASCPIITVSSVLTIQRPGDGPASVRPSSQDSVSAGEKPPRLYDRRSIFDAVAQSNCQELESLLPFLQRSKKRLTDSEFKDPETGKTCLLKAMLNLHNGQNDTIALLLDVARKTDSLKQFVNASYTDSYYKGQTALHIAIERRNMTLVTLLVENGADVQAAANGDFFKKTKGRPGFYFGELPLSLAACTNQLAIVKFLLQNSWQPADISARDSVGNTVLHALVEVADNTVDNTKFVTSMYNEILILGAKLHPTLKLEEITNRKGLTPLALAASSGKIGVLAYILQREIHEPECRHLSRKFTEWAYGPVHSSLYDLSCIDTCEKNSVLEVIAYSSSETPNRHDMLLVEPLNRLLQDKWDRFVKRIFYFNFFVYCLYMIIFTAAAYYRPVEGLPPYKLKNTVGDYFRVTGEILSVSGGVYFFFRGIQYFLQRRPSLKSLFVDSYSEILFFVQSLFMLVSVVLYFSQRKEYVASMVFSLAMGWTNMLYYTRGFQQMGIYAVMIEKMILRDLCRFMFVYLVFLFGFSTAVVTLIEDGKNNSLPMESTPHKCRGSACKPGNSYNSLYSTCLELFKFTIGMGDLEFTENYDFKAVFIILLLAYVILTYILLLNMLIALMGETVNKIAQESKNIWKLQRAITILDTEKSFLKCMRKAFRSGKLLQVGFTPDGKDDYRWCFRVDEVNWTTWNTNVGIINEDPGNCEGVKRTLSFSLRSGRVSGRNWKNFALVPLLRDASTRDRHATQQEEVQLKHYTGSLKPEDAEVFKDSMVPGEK
Experimental: The agonistic or antagonistic action of the substances to be studied on the vanilloid receptor 1 (VR1/TRPV1) of the rat species can be determined with the following assay. In this assay, the Ca^2+ current through the receptor channel is quantified with the aid of a Ca^2+-sensitive dye (Fluo-4 type, Molecular Probes Europe BV, Leiden the Netherlands) in a fluorescent imaging plate reader (FLIPR, Molecular Devices, Sunnyvale, USA).
Complete medium: 50 ml HAMS F12 Nutrient Mixture (Gibco Invitrogen GmbH, Karlsruhe, Germany) with
10% by volume of FCS (fetal calf serum, Gibco Invitrogen GmbH, Karlsruhe, Germany, heat-inactivated);
2 mM L-glutamine (Sigma, Munich, Germany);
1% by weight of AA solution (antibiotic/antimycotic solution, PAA, Pasching, Austria) and 25 ng/ml of NGF medium (2.5 S, Gibco Invitrogen GmbH, Karlsruhe, Germany)
Cell culture plate: poly-D-lysine-coated, black 96-hole plates with a clear bottom (96 well black/clear plate, BD Biosciences, Heidelberg, Germany) are additionally coated with laminin (Gibco Invitrogen GmbH, Karlsruhe, Germany) by diluting laminin to a concentration of 100 μg/ml with PBS (Ca—Mg-free PBS, Gibco Invitrogen GmbH, Karlsruhe, Germany). Aliquots having a concentration of 100 μg/ml of laminin are withdrawn and stored at −20° C. The aliquots are diluted with PBS in a ratio of 1:10 to 10 μg/ml of laminin and in each case 50 μl of the solution are pipetted into a well of the cell culture plate. The cell culture plates are incubated at 37° C. for at least two hours, the supernatant solution is removed by suction and the wells are each washed twice with PBS. The coated cell culture plates are stored with supernatant PBS which is not removed until directly before the application of the cells.
The spinal column is removed from beheaded rats and placed directly into cold HBSS buffer (Hank's buffered saline solution, Gibco Invitrogen GmbH, Karlsruhe, Germany), i.e. placed in an ice bath, which has been admixed with 1% by volume of an AA solution (antibiotic/antimycotic solution, PAA, Pasching, Austria). The spinal column is severed longitudinally and removed from the spinal canal together with fasciae. Subsequently, the dorsal root ganglia (DRGs) are removed and in turn stored in cold HBSS buffer admixed with 1% by volume of an […]. The DRGs freed completely of blood residues and spinal nerves are in each case transferred to 500 μl of cold type 2 collagenase (PAA, Pasching, Austria) and incubated at 37° C. for 35 minutes. After addition of 2.5% by volume of trypsin (PAA, Pasching, Austria), incubation is continued at 37° C. for a further 10 minutes. After complete incubation, the enzyme solution is cautiously pipetted off and the remaining DRGs are each admixed with 500 μl of complete medium.
The DRGs are each suspended repeatedly, drawn through cannulas No. 1, No. 12 and No. 16 by means of a syringe and transferred to 50 ml Falcon tubes which are made up to 15 ml with complete medium. The contents of each Falcon tube are in each case filtered through a 70 μm Falcon filter insert and centrifuged at 1200 revolutions and room temperature for 10 minutes. The resulting pellet is in each case taken up in 250 μl of complete medium and the cell count is determined.
The number of cells in the suspension is adjusted to 3 times 10^5 per ml and in each case 150 μl of this suspension are added to one well of the cell culture plates coated as described above. In the incubator, the plates are left to stand at 37° C., 5% by volume of CO2 and 95% relative air humidity for two to three days.
Subsequently, the cells are laden with 2 μM Fluo-4 and 0.01% by volume of Pluronic F127 (Molecular Probes Europe BV, Leiden, the Netherlands) in HBSS buffer (Hank's buffered saline solution, Gibco Invitrogen GmbH, Karlsruhe, Germany) at 37° C. for 30 min, washed 3× with HBSS buffer and, after a further incubation of 15 minutes, used in the FLIPR assay at room temperature for Ca^2+ measurement. […]

[2] = target: T2, human vanilloid receptor 1 (VR1) (Homo sapiens, UniProt Q8NER1); assay: FLIPR Ca2+ functional study on human vanilloid receptor 1 (CHO K1 cells transfected with human VR1); assay type: cell-based; conditions: for IC50 / EC50: FLIPR; for IC50: antagonistic action; for VR1 (human) (% inhibition compared to 10 μM CP) / inhibition at 10 µM: test compound 10 μM, suppression of Ca2+ current after 100 nM capsaicin, relative to maximum inhibition with 10 μM capsaicin (CP); for inhibition at 10 µM: CHO-K1, read-out: VR1 (human) (% inhibition compared to 10 μM CP); for EC50: agonistic action
T2 construct: expressed in transfected cells; host or cells: CHO K1 cells (ECACC), stably transfected
T2 sequence (Q8NER1 whole entry): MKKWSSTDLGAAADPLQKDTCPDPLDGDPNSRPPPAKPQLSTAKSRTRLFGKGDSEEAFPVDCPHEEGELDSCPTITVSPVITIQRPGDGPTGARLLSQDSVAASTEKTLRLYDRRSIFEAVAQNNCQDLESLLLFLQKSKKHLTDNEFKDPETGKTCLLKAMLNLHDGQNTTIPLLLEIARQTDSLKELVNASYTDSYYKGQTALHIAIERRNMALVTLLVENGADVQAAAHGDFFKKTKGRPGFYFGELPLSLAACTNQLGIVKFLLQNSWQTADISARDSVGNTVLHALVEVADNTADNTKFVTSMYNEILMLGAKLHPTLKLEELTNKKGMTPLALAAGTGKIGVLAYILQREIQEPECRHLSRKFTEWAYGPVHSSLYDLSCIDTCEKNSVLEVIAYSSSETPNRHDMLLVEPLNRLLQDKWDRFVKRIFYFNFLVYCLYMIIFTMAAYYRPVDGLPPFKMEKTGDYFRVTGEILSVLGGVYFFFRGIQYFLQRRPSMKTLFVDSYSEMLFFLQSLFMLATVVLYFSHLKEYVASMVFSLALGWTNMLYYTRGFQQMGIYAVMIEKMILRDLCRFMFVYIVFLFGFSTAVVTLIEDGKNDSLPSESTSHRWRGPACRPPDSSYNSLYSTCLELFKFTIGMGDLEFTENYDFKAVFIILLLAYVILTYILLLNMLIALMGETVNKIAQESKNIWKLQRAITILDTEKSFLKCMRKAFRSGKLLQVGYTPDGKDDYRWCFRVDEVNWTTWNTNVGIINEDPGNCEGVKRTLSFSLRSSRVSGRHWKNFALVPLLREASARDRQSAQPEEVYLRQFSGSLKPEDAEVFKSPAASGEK
Experimental: Chinese hamster ovary cells (CHO K1 cells, European Collection of Cell Cultures (ECACC), England) are transfected stably with the human vanilloid receptor 1 (VR1) gene or the vanilloid receptor 1 (VR1) gene of the rat. For functional studies, these cells are plated out onto poly-D-lysine-coated black 96-well plates with a clear bottom (BD Biosciences, Heidelberg, Germany) in a density of 25 000 cells/well. The cells are incubated overnight at 37° C. and 5% CO2 in culture medium (Ham's Nutrient Mixture F12, Gibco Invitrogen GmbH, Karlsruhe, Germany) with 10% by volume of FBS (fetal bovine serum, Gibco Invitrogen GmbH, Karlsruhe, Germany), and 18 μg/ml of L-proline (Gibco Invitrogen GmbH, Karlsruhe, Germany). The next day, the cells are laden with 2 μM Fluo-4 and 0.01% by volume of Pluronic F127 (Molecular Probes Europe BV, Leiden, The Netherlands) in HBSS buffer (Hank's buffered saline solution, Gibco Invitrogen GmbH, Karlsruhe, Germany) at 37° C. for 30 min. Subsequently, the plates are washed 3 times with HBSS buffer and, after a further incubation of 15 minutes at room temperature, used for Ca^2+ measurement in the FLIPR assay. The Ca^2+-dependent fluorescence is measured before and after addition of substances λex=488 nm, λem=540 nm). The quantification is effected by measuring the highest fluorescence intensity (FC, fluorescence counts) over the time.
The FLIPR protocol consists of 2 substance additions. First, the compounds to be tested (10 μM) are pipetted onto the cells obtained according to Ia or Ib and the Ca^2+ current is compared with the control (capsaicin 10 μM). This gives rise to the result in % activation based on the Ca^2+ signal after addition of 10 μM capsaicin (CP). After incubation for 5 minutes, 100 nM capsaicin is applied and the current of Ca^2+ is likewise determined.
Desensitizing agonists and antagonists lead to a suppression in the Ca^2+ current. % inhibition is calculated compared to the maximum achievable inhibition with 10 μM capsaicin.
Triple determinations (n=3) are performed and they are repeated in at least 3 independent experiments (N=4).

| Molecule | VR1 (rat) (% stimulation compared to 10 μM CP) [1] | VR1 (rat) (% inhibition compared to 10 μM CP) [1] | VR1 (human) (% inhibition compared to 10 μM CP) [2] | melting point | activation at 10 µM [1] | inhibition at 10 µM [1] | EC50 [1] | inhibition at 10 µM [2] | EC50 [2] | also measured |
| --- | --- | --- | --- | --- | --- | --- | --- | --- | --- | --- |
| (8-chloro-4-oxothiochroman-3,3-diyl)bis(methylene)bis(3-(trifluoromethyl)phenylcarbamate) [Example Compound 20] | 47.96% | 107.78% | 88.98% |  |  |  |  |  |  | IC50 [1]: 6.44 µM; IC50 [2]: 5.78 µM |
| O=C(Nc1ccc(C(F)(F)F)cc1)OCC1(COC(=O)Nc2ccc(C(F)(F)F)cc2)CSc2ccccc2C1=O [Example Compound 52, 3,3-bis(4-trifluoromethylphenylcarbamoyloxymethyl)thiochroman-4-one] |  |  |  | 76 to 82 °C |  |  |  |  |  |  |
| CC(C)(C)c1ccccc1NC(=O)OCC1(COC(=O)Nc2ccccc2C(C)(C)C)CSc2ccccc2C1=O [Example Compound 51, 3,3-bis(2-tert-butylphenylcarbamoyloxymethyl)thiochroman-4-one] |  |  |  | 62 to 68 °C |  |  |  |  |  |  |
| O=C(Nc1ccccc1)OCC1(COC(=O)Nc2ccccc2)CSc2ccccc2C1=O [Example Compound 41, 3,3-bis(phenylcarbamoyloxymethyl)thiochroman-4-one] |  |  |  |  | 38% | 14% | 2.4 µM | 95% | 0.995 µM |  |
| Cc1ccc2c(c1)S(=O)(=O)CC(COC(=O)Nc1ccccc1)(COC(=O)Nc1ccccc1)C2=O [Example Compound 48, 3,3-bis(phenylcarbamoyloxymethyl)-7-methyl-1,1-dioxo-1λ^6-thiochroman-4-one] |  |  |  | 85 to 95 °C | 64.9% | 88.8% | 3.4 µM | 81.1% | 1.85 µM |  |
| Cc1cccc2c1C(=O)C(COC(=O)Nc1ccccc1)(COC(=O)Nc1ccccc1)CS2 [Example Compound 40, (5-methyl-4-oxothiochroman-3,3-diyl)bis(methylene)bis(phenylcarbamate)] |  |  |  |  | 67% | 106% | 4.1 µM | 96.6% | 1.4 µM |  |
| Cc1cccc2c1SCC(CO)(COS(=O)(=O)c1ccc(C(C)(C)C)cc1)C2=O (stereo not shown) [Example Compound 13, 4-tert-butylbenzenesulfonic acid 3-hydroxymethyl-8-methyl-4-oxo-thiochroman-3-ylmethyl ester] |  |  |  |  | 0.81% | 40.3% |  | 23.8% |  |  |
| (7,8-dichloro-4-oxothiochroman-3,3-diyl)bis(methylene)bis(2-(trifluoromethyl)phenylcarbamate) [Example Compound 31] | 22.05% | 38.68% | 83.36% |  |  |  |  |  |  |  |
| Cc1cccc2c1C(=O)C(COC(=O)Nc1ccccc1)(COC(=O)Nc1ccccc1)CS2(=O)=O [Example Compound 46, 3,3-bis(phenylcarbamoyloxymethyl)-5-methyl-1,1-dioxo-1λ^6-thiochroman-4-one] |  |  |  |  | 25% | 96.8% | 13.8 µM | 38.5% | 6.4 µM |  |

The next lines start with results.

| VR1 (rat) (% stimulation compared to 10 μM CP) [1] | VR1 (rat) (% inhibition compared to 10 μM CP) [1] | VR1 (human) (% inhibition compared to 10 μM CP) [2] | melting point | activation at 10 µM [1] | inhibition at 10 µM [1] | EC50 [1] | inhibition at 10 µM [2] | EC50 [2] | Molecule | also measured |
| --- | --- | --- | --- | --- | --- | --- | --- | --- | --- | --- |
|  |  |  | 78 to 85 °C | 0% | 99.9% |  | 0% |  | CC(C)(C)c1ccc(NC(=O)OCC2(COC(=O)Nc3ccc(C(C)(C)C)cc3)CSc3ccccc3C2=O)cc1 [Example Compound 50, 3,3-bis(4-tert-butylphenylcarbamoyloxymethyl)thiochroman-4-one] | IC50 [1]: 5.7 µM; IC50 [2]: > 20 µM |
|  |  |  | 58 to 63 °C |  |  |  |  |  | O=C(Nc1cccc(C(F)(F)F)c1)OCC1(COC(=O)Nc2cccc(C(F)(F)F)c2)CSc2ccccc2C1=O [Example Compound 54, 3,3-bis(3-trifluoromethylphenylcarbamoyloxymethyl)thiochroman-4-one] |  |
| 109.36% | 119.74% | 88.33% |  |  |  | 5.86 µM |  | 0.99 µM | (7-methyl-4-oxothiochroman-3,3-diyl)bis(methylene)bis(phenylcarbamate) [Example Compound 39] |  |
| 88.01% | 100.80% | 91.55% |  |  |  |  |  |  | (7,8-dichloro-4-oxothiochroman-3,3-diyl)bis(methylene)bis(3-(trifluoromethyl)phenylcarbamate) [Example Compound 29] |  |
| 94.65% | 44.38% | 80.26% |  |  |  |  |  |  | (6-fluoro-4-oxothiochroman-3,3-diyl)bis(methylene)bis(3-(trifluoromethyl)phenylcarbamate) [Example Compound 30] |  |
| 17.64% | 61.99% | 69.64% |  |  |  |  |  |  | (8-chloro-4-oxothiochroman-3,3-diyl)bis(methylene)bis(2-(trifluoromethyl)phenylcarbamate) [Example Compound 14] |  |
